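Protocol summary: plate cells (96-well), add compound at 5 concentrations, incubate 48 h, interpolate endpoints linearly. GI50 = concentration required for 50% inhibition of growth. Definition used: TGI = concentration required for complete inhibition of growth.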
Assays:
Experiment in all cases: NCI anticancer screen, dose series, 48 h
786-0 renal = system: 786-0 renal
A498 renal = system: A498 renal
A549 NSCLC = system: A549 NSCLC
ACHN renal = system: ACHN renal
BT-549 breast = system: BT-549 breast
CAKI-1 renal = system: CAKI-1 renal
CCRF-CEM leukemia = system: CCRF-CEM leukemia
COLO 205 colon = system: COLO 205 colon
DU-145 prostate = system: DU-145 prostate
EKVX NSCLC = system: EKVX NSCLC
HCT-116 colon = system: HCT-116 colon
HCT-15 colon = system: HCT-15 colon
HL-60(TB) leukemia = system: HL-60(TB) leukemia
HOP-62 NSCLC = system: HOP-62 NSCLC
HOP-92 NSCLC = system: HOP-92 NSCLC
HS 578T breast = system: HS 578T breast
HT29 colon = system: HT29 colon
IGROV1 ovarian = system: IGROV1 ovarian
K-562 leukemia = system: K-562 leukemia
KM12 colon = system: KM12 colon
LOX IMVI melanoma = system: LOX IMVI melanoma
M14 melanoma = system: M14 melanoma
MALME-3M melanoma = system: MALME-3M melanoma
MCF7 breast = system: MCF7 breast
MDA-MB-231 breast = system: MDA-MB-231 breast
MDA-MB-435 = system: MDA-MB-435
MOLT-4 leukemia = system: MOLT-4 leukemia
NCI-H226 lung = system: NCI-H226 lung
NCI-H23 lung = system: NCI-H23 lung
NCI-H460 lung = system: NCI-H460 lung
NCI-H522 lung = system: NCI-H522 lung
NCI/ADR-RES ovarian = system: NCI/ADR-RES ovarian
OVCAR-3 ovarian = system: OVCAR-3 ovarian
OVCAR-4 ovarian = system: OVCAR-4 ovarian
OVCAR-5 ovarian = system: OVCAR-5 ovarian
OVCAR-8 ovarian = system: OVCAR-8 ovarian
PC-3 prostate = system: PC-3 prostate
RPMI-8226 leukemia = system: RPMI-8226 leukemia
RXF 393 renal = system: RXF 393 renal
SF-268 CNS = system: SF-268 CNS
SF-295 CNS = system: SF-295 CNS
SF-539 CNS = system: SF-539 CNS
SK-MEL-2 melanoma = system: SK-MEL-2 melanoma
SK-MEL-28 melanoma = system: SK-MEL-28 melanoma
SK-MEL-5 melanoma = system: SK-MEL-5 melanoma
SK-OV-3 ovarian = system: SK-OV-3 ovarian
SNB-19 CNS = system: SNB-19 CNS
SNB-75 CNS = system: SNB-75 CNS
SR leukemia = system: SR leukemia
SW-620 colon = system: SW-620 colon
T-47D breast = system: T-47D breast
TK-10 renal = system: TK-10 renal
U251 CNS = system: U251 CNS
UACC-257 melanoma = system: UACC-257 melanoma
UACC-62 melanoma = system: UACC-62 melanoma
UO-31 renal = system: UO-31 renal

## CN(C)c1ccc2c(c1)OC(N)=C(C#N)C2c1ccc2c(c1)CCCN2C (configuration not stated)
786-0 renal
  GI50: 4.33 µM
  TGI: > 100 µM
A498 renal
  GI50: 0.228 µM
  TGI: 4.07 µM
A549 NSCLC
  GI50: 2.03 µM
  TGI: > 100 µM
ACHN renal
  GI50: 4.63 µM
  TGI: 64.6 µM
BT-549 breast
  GI50: 2.03 µM
  TGI: 13.2 µM
CAKI-1 renal
  GI50: 3.33 µM
  TGI: > 100 µM
CCRF-CEM leukemia
  GI50: 3.01 µM
  TGI: 49.2 µM
COLO 205 colon
  GI50: 2.44 µM
  TGI: 6.51 µM
DU-145 prostate
  GI50: 3.51 µM
  TGI: > 100 µM
EKVX NSCLC
  GI50: 3.79 µM
  TGI: > 100 µM
HCT-116 colon
  GI50: 1.6 µM
  TGI: 14.6 µM
HCT-15 colon
  GI50: 0.789 µM
  TGI: > 100 µM
HL-60(TB) leukemia
  GI50: 2.81 µM
  TGI: 8.7 µM
HOP-62 NSCLC
  GI50: 1.83 µM
  TGI: 54.1 µM
HOP-92 NSCLC
  GI50: 2.82 µM
  TGI: 57 µM
HS 578T breast
  GI50: 2.13 µM
  TGI: > 100 µM
HT29 colon
  GI50: 2.62 µM
  TGI: 8.23 µM
IGROV1 ovarian
  GI50: 4.03 µM
  TGI: > 100 µM
K-562 leukemia
  GI50: 0.493 µM
  TGI: > 100 µM
KM12 colon
  GI50: 0.783 µM
  TGI: > 100 µM
LOX IMVI melanoma
  GI50: 1.97 µM
  TGI: 19.2 µM
M14 melanoma
  GI50: 1.29 µM
  TGI: 18.5 µM
MALME-3M melanoma
  GI50: 16.3 µM
  TGI: 58.9 µM
MCF7 breast
  GI50: 0.444 µM
  TGI: 33.4 µM
MDA-MB-231 breast
  GI50: 3.52 µM
  TGI: > 100 µM
MDA-MB-435
  GI50: 0.305 µM
  TGI: 1.28 µM
MOLT-4 leukemia
  GI50: 3.38 µM
  TGI: 24.5 µM
NCI-H226 lung
  GI50: 5.44 µM
  TGI: 71 µM
NCI-H23 lung
  GI50: 2.83 µM
  TGI: 92.1 µM
NCI-H460 lung
  GI50: 1.92 µM
  TGI: 24.9 µM
NCI-H522 lung
  GI50: 0.274 µM
  TGI: 1.47 µM
NCI/ADR-RES ovarian
  GI50: 1.12 µM
  TGI: 9.08 µM
OVCAR-3 ovarian
  GI50: 0.691 µM
  TGI: 10.3 µM
OVCAR-4 ovarian
  GI50: 5.01 µM
  TGI: > 100 µM
OVCAR-5 ovarian
  GI50: 59 µM
  TGI: > 100 µM
OVCAR-8 ovarian
  GI50: 3.2 µM
  TGI: 27.5 µM
PC-3 prostate
  GI50: 2.64 µM
  TGI: > 100 µM
RPMI-8226 leukemia
  GI50: 4.07 µM
  TGI: 31 µM
RXF 393 renal
  GI50: 1.43 µM
  TGI: 5.58 µM
SF-268 CNS
  GI50: 6.85 µM
  TGI: > 100 µM
SF-295 CNS
  GI50: 0.708 µM
  TGI: 6.51 µM
SF-539 CNS
  GI50: 2.28 µM
  TGI: 8.16 µM
SK-MEL-2 melanoma
  GI50: 1.68 µM
  TGI: 28.6 µM
SK-MEL-28 melanoma
  GI50: 11 µM
  TGI: 86.3 µM
SK-MEL-5 melanoma
  GI50: 0.733 µM
  TGI: 12.8 µM
SK-OV-3 ovarian
  GI50: 2.52 µM
  TGI: 25.8 µM
SNB-19 CNS
  GI50: 4.26 µM
  TGI: > 100 µM
SNB-75 CNS
  GI50: 2.27 µM
  TGI: > 100 µM
SR leukemia
  GI50: 0.648 µM
  TGI: 16.6 µM
SW-620 colon
  GI50: 0.938 µM
  TGI: > 100 µM
T-47D breast
  GI50: 11.7 µM
  TGI: 51.6 µM
TK-10 renal
  GI50: 10.2 µM
  TGI: 91.7 µM
U251 CNS
  GI50: 2.6 µM
  TGI: 21.9 µM
UACC-257 melanoma
  GI50: 10.5 µM
  TGI: 45.1 µM
UACC-62 melanoma
  GI50: 1.55 µM
  TGI: 33.9 µM
UO-31 renal
  GI50: 5.15 µM
  TGI: 78.5 µM

Reference: PubChem BioAssay (NCI)
